Measured values: patent US5135857A, “Process for the preparation of de-mannosyl teicoplanin derivatives” (Gruppo Lepetit S.p.A., priority 1987, dated 1992)

Legend:
Assay type in all cases: cell-based
[1] = system: Staph. epidermidis L147 ATCC 12228 (coagulase negative); assay: MIC broth dilution test, Staph. epidermidis; conditions: Isosensitest broth, 24 h
Procedure: (§1) Culture media and growth conditions for MIC (minimal inhibitory concentration) determinations were as follows: Isosensitest broth (Oxoid), 24 h, for staphylococci, Strep. faecalis and Gram-negative bacteria ( Escherichia coli); Todd-Hewitt broth (Difco), 24 h for other streptococcal species; GC base broth (Difco)+1% Isovitalex (BBL), 48 h, CO2 -enriched atmosphere for Neisseria gonorrhoeae; Brain Heart broth (Difco)+1% Supplement C (Difco), 48 h for Haemophilus influenzae; Inocula were of about 10^4 -10^5 colony-forming units/ml for broth dilution MICs.

Strep. pyogenes L49 C203 = assay: MIC broth dilution test, Strep. pyogenes; conditions: Todd-Hewitt broth, 24 h
Procedure: as §1

[2] = system: Strip. pneumoniae L44 UC41; assay: MIC broth dilution test, Strep. pneumoniae; conditions: Todd-Hewitt broth, 24 h
Procedure: as §1

[3] = system: Strep. faecalis L149 ATCC 7080; assay: MIC broth dilution test, Strep. faecalis; conditions: Isosensitest broth, 24 h
Procedure: as §1

[4] = system: Strep. mitis L796 (clinical isolate); assay: MIC broth dilution test, Strep. mitis; conditions: Todd-Hewitt broth, 24 h
Procedure: as §1

[5] = system: Neisseria gonorrhoeae L997 ISM68/126; assay: MIC broth dilution test, Neisseria gonorrhoeae; conditions: GC base broth + 1% Isovitalex, 48 h, CO2-enriched atmosphere
Procedure: as §1

[6] = system: Haemophilus influenzae L970 type b ATCC 19418; assay: MIC broth dilution test, Haemophilus influenzae; conditions: Brain Heart broth + 1% Supplement C, 48 h
Procedure: as §1

[7] = system: Staph. haemolyticus L602 (clinical isolate); assay: MIC broth dilution test, Staph. haemolyticus; conditions: Isosensitest broth, 24 h
Procedure: as §1

Structure (SMILES) | M.I.C. [1] [microgram/ml] | M.I.C. (Strep. pyogenes L49 C203) [microgram/ml] | M.I.C. [2] [microgram/ml] | M.I.C. [3] [microgram/ml] | M.I.C. [4] [microgram/ml] | M.I.C. [5] [microgram/ml] | M.I.C. [6] [microgram/ml] | M.I.C. [7] [microgram/ml]
CC(=O)N[C@H]1[C@H](OC2c3ccc(c(Cl)c3)Oc3cc4cc(c3O[C@@H]3O[C@H](CO)[C@@H](O)[C@H](O)[C@H]3NC(=O)CCCCCCC(C)C)Oc3ccc(cc3Cl)CC3NC(=O)C(N)c5ccc(O)c(c5)Oc5cc(O)cc(c5)C(NC3=O)C(=O)NC4C(=O)NC3C(=O)NC2C(=O)NC(C(=O)O)c2cc(O)cc(O)c2-c2cc3ccc2O)O[C@H](CO)[C@@H](O)[C@@H]1O (stereo partly shown) [DM-TA2-2, de-mannosyl teicoplanin complex component 2] | 0.063 | 0.063 | 0.063 | 0.063 | 0.063 | 32 | 64 | 0.5
CCCCCCCCCC(=O)N[C@H]1[C@H](Oc2c3cc4cc2Oc2ccc(cc2Cl)C(O[C@@H]2O[C@H](CO)[C@@H](O)[C@H](O)[C@H]2NC(C)=O)C2NC(=O)C(NC(=O)C4NC(=O)C4NC(=O)C(Cc5ccc(c(Cl)c5)O3)NC(=O)C(N)c3ccc(O)c(c3)Oc3cc(O)cc4c3)c3ccc(O)c(c3)-c3c(O)cc(O)cc3C(C(=O)O)NC2=O)O[C@H](CO)[C@@H](O)[C@@H]1O (stereo partly shown) [DM-TA2-3, de-mannosyl teicoplanin complex component 3] | 0.063 | 0.063 | 0.063 | 0.063 | 0.063 | 32 | 64 | 0.5
CCC(C)CCCCCCC(=O)N[C@H]1[C@H](Oc2c3cc4cc2Oc2ccc(cc2Cl)C(O[C@@H]2O[C@H](CO)[C@@H](O)[C@H](O)[C@H]2NC(C)=O)C2NC(=O)C(NC(=O)C4NC(=O)C4NC(=O)C(Cc5ccc(c(Cl)c5)O3)NC(=O)C(N)c3ccc(O)c(c3)Oc3cc(O)cc4c3)c3ccc(O)c(c3)-c3c(O)cc(O)cc3C(C(=O)O)NC2=O)O[C@H](CO)[C@@H](O)[C@@H]1O (stereo partly shown) [DM-TA2-4, de-mannosyl teicoplanin complex component 4] | 0.063 | 0.063 | 0.063 | 0.063 |  | 32 | 64 | 0.5
CC(=O)N[C@H]1[C@H](OC2c3ccc(c(Cl)c3)Oc3cc4cc(c3O[C@@H]3O[C@H](CO)[C@@H](O)[C@H](O)[C@H]3NC(=O)CCCCCCCC(C)C)Oc3ccc(cc3Cl)CC3NC(=O)C(N)c5ccc(O)c(c5)Oc5cc(O)cc(c5)C(NC3=O)C(=O)NC4C(=O)NC3C(=O)NC2C(=O)NC(C(=O)O)c2cc(O)cc(O)c2-c2cc3ccc2O)O[C@H](CO)[C@@H](O)[C@@H]1O (stereo partly shown) [DM-TA2-5, de-mannosyl teicoplanin complex component 5] | 0.063 | 0.063 | 0.063 | 0.063 | 0.063 | 32 | 32 | 0.25
